Measured values published in patent US10111890B2, “9-aminomethyl minocycline compounds and uses thereof” (Paratek Pharmaceuticals, Inc., priority 2016, dated 2018).

Assay: Phase 3 oral omadacycline vs oral linezolid in ABSSSI: safety (adverse events, TEAEs, vital signs, ECG, laboratory)
Type: in vivo
Conditions: safety population
From the text: An Adverse Event (AE) is any untoward, undesired, or unplanned event in the form of signs, symptoms, disease, or laboratory or physiologic observations occurring in a person given a test article or in a clinical study. […] An AE includes, but is not limited to, the following: any clinically significant worsening of a preexisting condition; an AE occurring from overdose of a test article, whether accidental or intentional; overdose is a dose greater than that specified in the protocol; an AE occurring from abuse (e.g., use for nonclinical reasons) of a test article; and an AE that has been associated with the discontinuation of the use of a test article.
The severity (or intensity) of an AE was classified using the following criteria:
Concerning relatedness, causality (i.e., whether there was a reasonable possibility that test article caused the event) for all AEs and SAEs was assessed.
Safety variables include the incidence rate of AEs, change in vital signs, ECG parameters and laboratory test results obtained during the course of the study. For safety analyses, subjects were analyzed according to the treatment actually received.
Summary tables were provided for all treatment-emergent adverse events (TEAEs). A TEAE is defined as an AE with a start date and time on or after the first dose of test article. […] Additional tabulations provide summaries by SOC and PT of subjects experiencing SAEs, severe TEAEs, TEAEs judged to be related to test article, TEAEs leading to discontinuation of test article, and TEAEs of special interest.
The following variables were analyzed descriptively: Vital signs (systolic and diastolic BP, pulse rate, body temperature, respiratory rate), including change from Screening by visit; Clinically notable vital signs (meeting predefined criteria as specified in the SAP) by visit. Subjects with notable vital signs data were listed.
ECG data (RR interval, PR interval, QRS interval, QTc, QTc Bazett's Correction Formula [QTcB], and QTc Fridericia's Correction Formula [QTcF]) was summarized descriptively at each scheduled evaluation, and for the overall worst post-Screening value. Changes from Screening at each visit that a 12-lead ECG was obtained was also provided. An outlier analysis was conducted based on the worst post-Screening value.
The following variables were analyzed descriptively: Laboratory variables by visit; Change from Screening of laboratory variables by visit; and Clinically notable laboratory values (meeting predefined criteria specified in the SAP) by visit.

## CC(=O)NCC1CN(c2ccc(N3CCOCC3)c(F)c2)C(=O)O1 (stereo not drawn) [Linezolid, N-[[3-(3-fluoro-4-morpholinophenyl)-2-oxooxazolidin-5-yl]methyl]acetamide, reference compound]
  Subjects who died: 1 (0.3) n (%)
  Subjects with at Least One Adverse Events (AE): 140 (38.1) n (%)
  Subjects with at Least One Drug-Related Serious TEAE: 1 (0.3) n (%)
  Subjects with at Least One Drug-Related TEAE: 52 (14.2) n (%)
  Subjects with at Least One Serious TEAE: 5 (1.4) n (%)
  Subjects with at Least One Serious TEAE leading to Death: 1 (0.3) n (%)
  Subjects with at Least One Serious TEAEs leading to premature discontinuation of test article: 2 (0.5) n (%)
  Subjects with at Least One Severe TEAE: 7 (1.9) n (%)
  Subjects with at Least One TEAE Leading to Study Drug Discontinuation: 3 (0.8) n (%)
  Subjects with at Least One TEAE leading to dose interruption: 0 n (%)
  Subjects with at Least One TEAE leading to premature discontinuation of study: 1 (0.3) n (%)
  Subjects with at Least One TEAE leading to premature discontinuation of test article: 3 (0.8) n (%)
  TEAE leading to study drug discontinuation: Cellulitis: 0 n (%)
  TEAE leading to study drug discontinuation: Gastrointestinal Disorders (SOC): 0 n (%)
  TEAE leading to study drug discontinuation: Haematemesis: 0 n (%)
  TEAE leading to study drug discontinuation: Infections And Infestations (SOC): 1 (0.3) n (%)
  TEAE leading to study drug discontinuation: Nausea: 0 n (%)
  TEAE leading to study drug discontinuation: Pregnancy: 0 n (%)
  TEAE leading to study drug discontinuation: Pregnancy, Puerperium And Perinatal Conditions (SOC): 0 n (%)
  TEAE leading to study drug discontinuation: Staphylococcal Bacteraemia: 0 n (%)
  TEAE leading to study drug discontinuation: Subcutaneous Abscess: 0 n (%)
  TEAE leading to study drug discontinuation: Vomiting: 0 n (%)
  TEAE leading to study drug discontinuation: Wound Infection: 1 (0.3) n (%)
  TEAE: Alanine Aminotransferase Increased: 11 (3.0) n (%)
  TEAE: Aspartate Aminotransferase Increased: 12 (3.3) n (%)
  TEAE: Cellulitis: 9 (2.5) n (%)
  TEAE: Headache: 8 (2.2) n (%)
  TEAE: Wound Infection: 17 (4.6) n (%)
  Total Number of AEs: 250
  Total Number of TEAEs: 239
AE overview
  Subjects with at Least One TEAE: 137 (37.3) n (%)
All severities
  TEAE: Abdominal Pain Upper: 4 (1.1) n (%)
  TEAE: Diarrhea: 10 (2.7) n (%)
  TEAE: Nausea: 28 (7.6) n (%)
  TEAE: Vomiting: 11 (3.0) n (%)
Highest severity Mild
  Subjects with at Least One TEAE, Mild: 85 (23.2) n (%)
  TEAE: Abdominal Pain Upper, Mild: 4 (1.1) n (%)
  TEAE: Abdominal Pain, Mild: 1 (0.3) n (%)
  TEAE: Diarrhea, Mild: 9 (2.5) n (%)
  TEAE: Gastrointestinal Disorders (SOC), Mild: 44 (12.0) n (%)
  TEAE: Nausea, Mild: 24 (6.5) n (%)
  TEAE: Vomiting, Mild: 10 (2.7) n (%)
Highest severity Moderate
  Subjects with at Least One TEAE, Moderate: 45 (12.3) n (%)
  TEAE: Abdominal Pain Upper, Moderate: 0 n (%)
  TEAE: Abdominal Pain, Moderate: 1 (0.3) n (%)
  TEAE: Diarrhea, Moderate: 1 (0.3) n (%)
  TEAE: Gastrointestinal Disorders (SOC), Moderate: 8 (2.2) n (%)
  TEAE: Nausea, Moderate: 4 (1.1) n (%)
  TEAE: Vomiting, Moderate: 1 (0.3) n (%)
Highest severity Severe
  Subjects with at Least One TEAE, Severe: 7 (1.9) n (%)
  TEAE: Abdominal Pain Upper, Severe: 0 n (%)
  TEAE: Abdominal Pain, Severe: 0 n (%)
  TEAE: Diarrhea, Severe: 0 n (%)
  TEAE: Gastrointestinal Disorders (SOC), Severe: 0 n (%)
  TEAE: Nausea, Severe: 0 n (%)
  TEAE: Vomiting, Severe: 0 n (%)
Most frequent (≥2%) TEAEs table
  Subjects with at Least One TEAE: 137 (37.3) n (%)
